Test systems include MDA-N; UACC-257; LOX IMVI; HCC 2998; NCI/ADR-RES; SR; SF-539; SK-OV-3; HOP-62; OVCAR-4; UACC-62; A549; EKVX; K562; SW-620; Malme-3M; SK-MEL-28; NCI-H23; OVCAR-8; SN12C.
Holding throughout (assay): NCI-60 cell line screen, 48 h

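A five-concentration, 48-hour dose response in 96-well plates underlies each endpoint, interpolated linearly between surrounding concentrations. Here, GI50 denotes the concentration required for 50% inhibition of growth.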 Calls of active or inactive are those of the source. Rule as the data show it: active = GI50 up to about 1.1 µM and inactive = higher.

Turning to `CC(=O)SC(C[N+](=O)[O-])c1ccc2c(c1)OCO2` (stereo not given), the GI50 in the experiment with MDA-N was 2.1 µM (inactive); in the experiment on UACC-257, 9.1 µM (inactive); in the experiment on LOX IMVI, 1.81 µM (inactive); in the experiment with HCC 2998, 1.73 µM (inactive); in the experiment on NCI/ADR-RES, 11.6 µM (inactive); in the experiment with SR, 2.5 µM (inactive). For the same compound, the GI50 in the experiment on SF-539 was 2.37 µM (inactive); in the experiment with SK-OV-3 it was 7.24 µM (inactive); in the experiment with HOP-62, 17.4 µM (inactive); in the experiment on OVCAR-4, 13.6 µM (inactive); in the experiment with UACC-62, 5.62 µM (inactive); in the experiment on A549, 14.2 µM (inactive). For the same compound, the GI50 in the experiment with EKVX is 21.4 µM (inactive); with K562, 3.38 µM (inactive); with SW-620 it was 3.24 µM (inactive); in the experiment on Malme-3M, 8.11 µM (inactive); with SK-MEL-28, 3.15 µM (inactive); in the experiment with NCI-H23, 5.89 µM (inactive). The GI50 in the experiment on OVCAR-8 was 13.6 µM (inactive); in the experiment on SN12C it was 5.73 µM (inactive).

On to `OCCCCn1cc(Cn2ncc3c(NCc4ccccc4)ncnc32)nn1`, for which the GI50 in the experiment on MDA-N is 42.8 µM (inactive); with UACC-257, > 100 µM (inactive); in the experiment with LOX IMVI it was > 100 µM (inactive); in the experiment with HCC 2998 it was > 100 µM (inactive); in the experiment with NCI/ADR-RES it was > 100 µM (inactive); in the experiment with SR, 15.9 µM (inactive). Further, the GI50 with SF-539, in the experiment on SK-OV-3, in the experiment with HOP-62, with OVCAR-4, in the experiment on UACC-62 and with A549 was > 100 µM (inactive) in each case. Further, the GI50 in the experiment with EKVX is > 100 µM (inactive); in the experiment on K562, 44.3 µM (inactive); with SW-620, > 100 µM (inactive); in the experiment on Malme-3M, > 100 µM (inactive); in the experiment with SK-MEL-28 it was > 100 µM (inactive); with NCI-H23, > 100 µM (inactive). For the same compound, the GI50 with OVCAR-8 and in the experiment on SN12C was > 100 µM (inactive) each time.

With `CN(CCCNC(=O)c1c2ccc3ccccc3c2nn1C)CCCNC(=O)c1c2ccc3ccccc3c2nn1C`, the GI50 in the experiment on MDA-N was 2.96 µM (inactive); in the experiment with UACC-257, 1.9 µM (inactive); in the experiment on LOX IMVI, 3.15 µM (inactive); in the experiment on HCC 2998, 1.87 µM (inactive); with NCI/ADR-RES, 13.6 µM (inactive); in the experiment with SR it was 3 µM (inactive). Moreover, the GI50 in the experiment on SF-539 is 6.24 µM (inactive); with SK-OV-3, 15 µM (inactive); in the experiment on HOP-62 it was 14.8 µM (inactive); with OVCAR-4, 11.7 µM (inactive); in the experiment on UACC-62 it was 1.87 µM (inactive); with A549, 12.4 µM (inactive). In addition, the GI50 in the experiment with EKVX was 9.14 µM (inactive); with K562 it was 3.48 µM (inactive); in the experiment on SW-620 it was 7.74 µM (inactive); with Malme-3M, 3.03 µM (inactive); with SK-MEL-28, 2.3 µM (inactive); with NCI-H23, 15.1 µM (inactive). Also, the GI50 was 13.3 µM (inactive) in the experiment on OVCAR-8 and 12.4 µM (inactive) with SN12C.

Consider `CCCn1c2ccccc2c2ccc3c(c21)C(=O)C=CC3=O`, for which the GI50 was 2.65 µM (inactive) in the experiment on MDA-N; 1.78 µM (inactive) in the experiment on UACC-257; > 10 µM (inactive) with LOX IMVI; > 9.68 µM (inactive) with HCC 2998; 2.9 µM (inactive) in the experiment on NCI/ADR-RES; 0.719 µM (active) in the experiment on SR. Also, the GI50 was > 4.8 µM (inactive) in the experiment with SF-539; > 10 µM (inactive) in the experiment with SK-OV-3; > 10 µM (inactive) in the experiment with HOP-62; 1.88 µM (inactive) with OVCAR-4; 4.13 µM (inactive) with UACC-62; > 10 µM (inactive) in the experiment with A549. Besides, the GI50 in the experiment on EKVX is > 5.32 µM (inactive); in the experiment on K562, 0.561 µM (active); with SW-620, 1.16 µM (inactive); with Malme-3M, 1.83 µM (inactive); in the experiment with SK-MEL-28, 2.2 µM (inactive); in the experiment on NCI-H23 it was 2.58 µM (inactive). The values for the GI50 with OVCAR-8 and in the experiment with SN12C were 2.54 µM (inactive) and 3.78 µM (inactive), respectively.

In the case of `O=c1c2ccccc2nc2sc(/N=C/C=C/c3ccccc3)nn12`, the GI50 in the experiment on MDA-N is > 100 µM (inactive); in the experiment on UACC-257, > 100 µM (inactive); in the experiment on LOX IMVI, 56.9 µM (inactive); in the experiment with HCC 2998, > 100 µM (inactive); with NCI/ADR-RES it was > 100 µM (inactive); in the experiment with SR, > 100 µM (inactive). For the same compound, the GI50 with SF-539, in the experiment on SK-OV-3, in the experiment with HOP-62, with OVCAR-4, in the experiment with UACC-62 and in the experiment on A549 was > 100 µM (inactive) each time. For the same compound, the GI50 in the experiment on EKVX, in the experiment with K562, with SW-620, in the experiment with Malme-3M, in the experiment with SK-MEL-28 and with NCI-H23 was > 100 µM (inactive) in each case. Further, the GI50 with OVCAR-8 and in the experiment with SN12C was > 100 µM (inactive) each time.

For the compound `COc1cc2c(cc1OC)C1c3ccccc3CCCN1CC2` (stereo not given), the GI50 in the experiment with MDA-N, in the experiment with UACC-257, with LOX IMVI, in the experiment with HCC 2998, with NCI/ADR-RES and with SR was > 100 µM (inactive) throughout. In addition, the GI50 in the experiment with SF-539, in the experiment with SK-OV-3, with HOP-62, in the experiment with OVCAR-4, in the experiment with UACC-62 and in the experiment with A549 was > 100 µM (inactive) each time. Also, the GI50 in the experiment with EKVX, in the experiment with K562, in the experiment with SW-620, in the experiment on Malme-3M, in the experiment on SK-MEL-28 and in the experiment on NCI-H23 was > 100 µM (inactive) in each case. Besides, the GI50 in the experiment with OVCAR-8 and in the experiment with SN12C was > 100 µM (inactive) each time.

Regarding `Cc1ncc(COP(=O)(O)O)c(/C=C2\SC(=S)NC2=O)c1O`, the GI50 with MDA-N, in the experiment with UACC-257, in the experiment with LOX IMVI, in the experiment on HCC 2998, in the experiment with NCI/ADR-RES and with SR was > 100 µM (inactive) in each case. Also, the GI50 with SF-539, in the experiment with SK-OV-3, in the experiment with HOP-62, in the experiment on OVCAR-4, in the experiment with UACC-62 and in the experiment with A549 was > 100 µM (inactive) in each case. The GI50 is > 100 µM (inactive) with EKVX; > 85.7 µM (inactive) in the experiment on K562; > 100 µM (inactive) in the experiment on SW-620; > 100 µM (inactive) in the experiment on Malme-3M; > 100 µM (inactive) in the experiment with SK-MEL-28; > 100 µM (inactive) in the experiment on NCI-H23. The GI50 with OVCAR-8 and with SN12C was > 100 µM (inactive) in each case.

As for `c1ccc2c(c1)CCN1CCc3c([nH]c4ccccc34)C21` (stereo not given), the GI50 in the experiment on MDA-N is 25.1 µM (inactive); in the experiment on UACC-257 it was 24.4 µM (inactive); with LOX IMVI, 22.8 µM (inactive); in the experiment with HCC 2998, 17.2 µM (inactive); in the experiment with NCI/ADR-RES it was 22.1 µM (inactive); in the experiment with SR it was 24.4 µM (inactive). The GI50 was 49 µM (inactive) in the experiment on SF-539; 47 µM (inactive) with SK-OV-3; 36 µM (inactive) in the experiment with HOP-62; 35.2 µM (inactive) in the experiment with OVCAR-4; 31.6 µM (inactive) in the experiment on UACC-62; 37.1 µM (inactive) with A549. In addition, the GI50 in the experiment with EKVX is 28.2 µM (inactive); in the experiment on K562, 20.5 µM (inactive); in the experiment on SW-620, 36.2 µM (inactive); with Malme-3M, 18.1 µM (inactive); in the experiment with SK-MEL-28, 19.1 µM (inactive); in the experiment on NCI-H23, 38.8 µM (inactive). Moreover, the GI50 in the experiment on OVCAR-8 was 31.8 µM (inactive); in the experiment on SN12C it was 32.7 µM (inactive).

Regarding `Nc1nccc(Nc2ccc(S(N)(=O)=O)cc2)n1`, the GI50 in the experiment on MDA-N, in the experiment with UACC-257, in the experiment with LOX IMVI, in the experiment with HCC 2998, in the experiment with NCI/ADR-RES and with SR was > 100 µM (inactive) throughout. Further, the GI50 with SF-539, in the experiment with SK-OV-3, in the experiment with HOP-62, in the experiment on OVCAR-4, with UACC-62 and in the experiment with A549 was > 100 µM (inactive) each time. For the same compound, the GI50 in the experiment on EKVX, in the experiment with K562, in the experiment with SW-620, with Malme-3M, in the experiment with SK-MEL-28 and in the experiment on NCI-H23 was > 100 µM (inactive) throughout. The GI50 in the experiment on OVCAR-8 and with SN12C was > 100 µM (inactive) throughout.

Values taken from ChEMBL document CHEMBL1201862, “PubChem BioAssay data set” (2004).
